Measured values as given in patent US4386103A, “Dichloroamino acid derivatives useful as potent germicidal and fungicidal agents” (Merck & Co., Inc., priority 1981, dated 1983).

Tests used:
Assay type in all cases: cell-based
Aspergillus fumigatus = assay: Contact fungicidal screen, Aspergillus fumigatus; conditions: 0.1M NaOAc pH 4.6
Method: (§1) The organisms used in the Contact Fungicidal Screen are a dermatophyte, trychophyton mentagrophytes, frequently associated with athlete's foot; a yeast, Candida albican, causative agent of thrush and vaginitis; a phycomycete, Rhizopus oryzae, commonly known as black bread mold; an ascomycete, Aspergillus fumagatis, found in chicken droppings and causing lung infections; and another dermatophyte, Microsporum canis, which causes ringworm. These organisms are maintained as stock cultures at 4° C. on agar […] of the following composition: dextrose 2%, Neopeptone (Difco) 1%, agar 2%. Fluid medium of the same nutrient composition (without agar) was used to test the viability of the organisms after exposure to the fungicide. This medium is also known as Sabouraud's medium. Sabouraud's agar plate cultures of Aspergillus fumigatus, Microsporum canis, and a different culture of Trychophyton mentagrophytes are prepared by planting an inoculum at the center of an agar plate and incubating at 25°-30° C. for seven to ten days. The mycelial mats are removed from the surface of the agar and prepared in the same manner as the Rhizopus culture. The compounds are weighed into heat sterilized 100 ml volumetric flasks and immediately before screening dissolved in 0.1 M NaOAc pH 4.6 buffer (test solutions). The Aspergillus, Candida, Microsporum and Rhizopus species are screened in a slightly different manner. Basically, the procedure for the Contact Germicidal Efficiency Screen is utilized. After the test solutions are made up, 5 ml aliquots are pipetted into heat sterilized 25 ml glass stoppered erlenmeyer flasks. The screen is initiated when 0.5 ml of the 5×10^6 cell (spore) per ml suspension is added to the flask containing 5 ml of the test solution. […] The subculture tubes are incubated at 25°-30° C. for ten days with daily observation for mycelial growth. The earliest subculture time at which no growth is present is considered the endpoint and is recorded as the sterilization time. To insure the viability of the culture, a 0.5 ml aliquot of the 5×10^6 cells (spores) per ml suspension is transferred to 5 ml of the pH 4.6 buffer. A loopful of the inoculated buffer is then subcultured to 7 ml of fluid Sabouraud's medium and incubated at 25°-30° C. for ten days. To insure that the dilution of the test solution into the subculture medium does stop the action, a loopful of the test solution and a loopful of the inoculated buffer are transferred into the same subculture tube. This tube is also incubated at 25°-30° C. for ten days.

Microsporum canis = assay: Contact fungicidal screen, Microsporum canis; conditions: 0.1M NaOAc pH 4.6
Method: as §1

Staphylococcus aureus = assay: Contact germicidal screen, Staphylococcus aureus ATCC No. 6538
Method: (§2) The organisms used in the contact germicidal screen are all maintained as stock cultures on nutrient agar […] 4° C. They are transferred and biochemically diagnosed monthly. The five organisms used are: The media used are: […] Overnight cultures of the test organisms are grown in tryptose phosphate broth. After 15-16 hours, the cultures are centrifuged at […] for 15 minutes, and the supernatant replaced with fresh warm (37° C.) media. After two hours of incubation, the absorbance of the culture at 650 nm is determined and diluted with nutrient broth to 1×10^7 colony forming units per ml (using a previous determined standard curve: colony forming units/ml vs. absorbance at 650). The diluted cultures are maintained at 4°-8° C. throughout the screen. The compounds are weighed into sterile 100 ml volumetric flasks, and immediately before screening dissolved in one of the following buffers: 0.1 M NaOAc pH 4.6 or 0.1 M NaH2 PO4 pH 7.0. If solubility poses a problem, 10-30% methanol is used to effect solution. Two denaturing agents are also tested: […] Horse Serum restored with 100 ml distilled water and 10% Trition×100. When used, 2.5 ml of the denaturing agent is mixed with 2.5 ml of double strength test solution thirty minutes before the bacterial suspension is added. The screen is initiated when 0.2 ml of the bacterial suspension is added to 5.0 ml of the test solution contained in a sterile 25 ml glass stoppered flask. At intervals of 0.5, 2.5, 5.0, 10.0 and 15.0 minutes, a loopful of the inoculated test solution is subcultured into 5 ml of sterile nutrient broth and mixed with a vortex, the high dilution serving to stop the action of the compound. All of the subculture tubes are incubated at 37° C. and checked for signs of growth by turbidity at 1, 3, 5 and 7 days. The earliest subculture time at which no growth is present is considered the endpoint and is recorded as the sterilization time. An aliquot of 0.2 ml of the diluted culture is transferred to 5 ml of buffer to simulate 0.2 ml in 5 ml of test solution. (a) Purity: A loopful of the inoculated buffer is streaked onto nutrient agar to check colony morphology and lack of contaminants. (b) Viability: A loopful of the inoculated buffer is subcultured to 5 ml of nutrient broth as in the screen and incubated at 37° C. for 24 hours. (c) Dilution of the Test Solution: A loopful of the test solution is transferred to a 5 ml tube of nutrient broth, and a loopful of the inoculated buffer is transferred to the same tube of broth. […] (d) Purity of Organisms in the Test Solution: After the 15 minute subculture, a loopful of the inoculated test solution is streaked onto nutrient agar to insure that contamination has not occurred during the screen. (e) lack of Bactericidal Activity of Buffers and Other Solvents: Before a buffer or other solvent is used as a diluent, it is screened against the five organisms to insure that the buffer or solvent has no antibacterial activity itself.

Pseudamonas aeruginosa = assay: Contact germicidal screen, Pseudamonas aeruginosa ATCC No. 14502
Method: as §2

[1] = 10.0+ PPM, 0.1M NaOAc pH 4.6, screened simultaneously with four other compounds
[2] = 300 PPM with 50% Horse Serum, 0.1M NaOAc pH 4.6
[3] = 300 PPM with 50% Triton X100, 0.1M NaOAc pH 4.6
[4] = 308.0 PPM, Triton X100 (10% solution):pH 4.6 buffer 1:1
[5] = 308.0 PPM, horse serum:pH 4.6 buffer 1:1
[6] = 1000 PPM with 50% Horse Serum, 0.1M NaOAc pH 4.6
[7] = 1000.0 PPM, horse serum:pH 4.6 buffer 1:1
[8] = 1012.3 PPM, 0.1M NaH2PO4 pH 7.0
[9] = 338.7 PPM, horse serum:pH 4.6 buffer 1:1
[10] = 1024.0 PPM, horse serum:pH 4.6 buffer 1:1
[11] = 1070.3 PPM, 0.1M NaH2PO4 pH 7.0

Compound | Sterilization Time (Aspergillus fumigatus; 10 PPM) [min] | Sterilization Time (Aspergillus fumigatus; 100 PPM) [min] | Sterilization Time (Aspergillus fumigatus; 1000 PPM) [min] | Sterilization Time (Microsporum canis; 10 PPM) [min] | Sterilization Time (Microsporum canis; 100 PPM) [min] | Sterilization Time (Microsporum canis; 1000 PPM) [min] | Sterilization Time (Staphylococcus aureus; [1]) [min] | Sterilization Time (summary) (Staphylococcus aureus; 10 PPM, 0.1M NaOAc pH 4.6) [min] | Sterilization Time (summary) (Staphylococcus aureus; 100 PPM, 0.1M NaOAc pH 4.6) [min] | Sterilization Time (summary) (Staphylococcus aureus; [2]) [min] | Sterilization Time (summary) (Staphylococcus aureus; [3]) [min] | Sterilization Time (Staphylococcus aureus; [4]) [min] | Sterilization Time (summary) (Staphylococcus aureus; [6]) [min] | Sterilization Time (summary) (Staphylococcus aureus; 1000 PPM, 0.1M NaOAc pH 4.6) [min] | Sterilization Time (Pseudamonas aeruginosa; [1]) [min] | Sterilization Time (summary) (Pseudamonas aeruginosa; 10 PPM, 0.1M NaOAc pH 4.6) [min] | Sterilization Time (summary) (Pseudamonas aeruginosa; 100 PPM, 0.1M NaOAc pH 4.6) [min] | Sterilization Time (summary) (Pseudamonas aeruginosa; [2]) [min] | Sterilization Time (summary) (Pseudamonas aeruginosa; [3]) [min] | Sterilization Time (Pseudamonas aeruginosa; [4]) [min] | further results
CC(C)(CCC(=O)O)N(Cl)Cl [(III), 4-Dichloroamino-4-methylvaleric acid] | 15 | 15 | 10.0 | 15 | 5.0 | 0.5 | 5.0 | 5.0 | 2.5 | 5.0 | 2.5 | 2.5 | 0.5 | 0.5 | 2.5 | 2.5 | 0.5 | 15 | 2.5 | 2.5 | Sterilization Time (Staphylococcus aureus; 9.6 PPM, 0.1M NaOAc pH 4.6): 10.0 min; Sterilization Time (Staphylococcus aureus; 9.7 PPM, 0.1M NaH2PO4 pH 7.0): 15 min; Sterilization Time (Staphylococcus aureus; 102.2 PPM, 0.1M NaOAc pH 4.6): 2.5 min; Sterilization Time (Staphylococcus aureus; 103.5 PPM, 0.1M NaH2PO4 pH 7.0): 15 min; Sterilization Time (Staphylococcus aureus; [5]): 5.0 min; Sterilization Time (Staphylococcus aureus; [7]): 0.5 min; Sterilization Time (Staphylococcus aureus; 1007.7 PPM, 0.1M NaOAc pH 4.6): 0.5 min; Sterilization Time (Staphylococcus aureus; [8]): 5.0 min; Sterilization Time (Pseudamonas aeruginosa; 9.6 PPM, 0.1M NaOAc pH 4.6): 5.0 min; Sterilization Time (Pseudamonas aeruginosa; 9.7 PPM, 0.1M NaH2PO4 pH 7.0): 15 min; Sterilization Time (Pseudamonas aeruginosa; 102.2 PPM, 0.1M NaOAc pH 4.6): 0.5 min; Sterilization Time (Pseudamonas aeruginosa; 103.5 PPM, 0.1M NaH2PO4 pH 7.0): 15 min; Sterilization Time (Pseudamonas aeruginosa; [5]): 15 min; Sterilization Time (summary) (Pseudamonas aeruginosa; [6]): 5.0 min; Sterilization Time (summary) (Pseudamonas aeruginosa; 1000 PPM, 0.1M NaOAc pH 4.6): 0.5 min; Sterilization Time (Pseudamonas aeruginosa; [7]): 5.0 min; Sterilization Time (Pseudamonas aeruginosa; 1007.7 PPM, 0.1M NaOAc pH 4.6): 0.5 min; Sterilization Time (Pseudamonas aeruginosa; [8]): 5.0 min
CC(C)(COC(=O)CCC(=O)O)N(Cl)Cl [(IV), 2-Dichloroamino-2-methylpropylhemisuccinate] | 15 | 15 | 15 | 15 | 15.0 | 2.5 | 15 | 15 | 2.5 | 15.0 | 2.5 | 2.5 | 2.5 | 0.5 | 5.0 | 5.0 | 2.5 | 15 | 2.5 | 2.5 | Sterilization Time (Staphylococcus aureus; 8.6 PPM, 0.1M NaOAc pH 4.6): 15.0 min; Sterilization Time (Staphylococcus aureus; 9.8 PPM, 0.1M NaH2PO4 pH 7.0): 15 min; Sterilization Time (Staphylococcus aureus; 106.2 PPM, 0.1M NaOAc pH 4.6): 2.5 min; Sterilization Time (Staphylococcus aureus; 149.7 PPM, 0.1M NaH2PO4 pH 7.0): 10.0 min; Sterilization Time (Staphylococcus aureus; [9]): 15.0 min; Sterilization Time (Staphylococcus aureus; 1008.0 PPM, 0.1M NaOAc pH 4.6): 0.5 min; Sterilization Time (Staphylococcus aureus; [10]): 2.5 min; Sterilization Time (Staphylococcus aureus; [11]): 10.0 min; Sterilization Time (Pseudamonas aeruginosa; 8.6 PPM, 0.1M NaOAc pH 4.6): 10.0 min; Sterilization Time (Pseudamonas aeruginosa; 9.8 PPM, 0.1M NaH2PO4 pH 7.0): 15 min; Sterilization Time (Pseudamonas aeruginosa; 106.2 PPM, 0.1M NaOAc pH 4.6): 2.5 min; Sterilization Time (Pseudamonas aeruginosa; 149.7 PPM, 0.1M NaH2PO4 pH 7.0): 15 min; Sterilization Time (Pseudamonas aeruginosa; [9]): 15 min; Sterilization Time (summary) (Pseudamonas aeruginosa; [6]): 10.0 min; Sterilization Time (summary) (Pseudamonas aeruginosa; 1000 PPM, 0.1M NaOAc pH 4.6): 0.5 min; Sterilization Time (Pseudamonas aeruginosa; 1008.0 PPM, 0.1M NaOAc pH 4.6): 0.5 min; Sterilization Time (Pseudamonas aeruginosa; [10]): 10.0 min; Sterilization Time (Pseudamonas aeruginosa; [11]): 15 min
